Data taken from US5962487A, “Antipicornaviral compounds and methods for their use and preparation” (Agouron Pharmaceuticals, Inc., priority 1997, dated 1999).

Assays:
in vitro = format: cell-based; details: human, hi-hela cells
How it was run: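 HI-HeLa cells infected with HRV-14 at m.o.i. 0.13 or mock-infected, incubated with compounds for two days; XTT/PMS formazan read at 450/650 nm. EC50 as concentration restoring formazan to 50% of mock-infected level; CC50 from mock-infected cells; TI = CC50/EC50.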

HRV-14 = test: Antirhinoviral HI-HeLa Cell Culture Assay (cell protection, XTT), HRV-14; format: cell-based, human rhinovirus; details: for TI: CC50/EC50, HRV serotype-14, 2880 min; for EC50: Rhinovirus B, HRV14, 48 h, HRV serotype-14 infected HI-HeLa cells, XTT, two days
How it was run: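 Read-out is XTT/PMS formazan at 450/650 nm, measured two days after compound exposure of HI-HeLa cells (8×10^5 cells/mL) infected at m.o.i. 0.13 or mock-infected. EC50: protection to 50% of compound-free mock-infected signal; CC50: 50% loss in mock-infected cells; TI is their ratio.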

[1] = target: T1, Rhinovirus 3C protease (RVP) serotype 16 (Human rhinovirus 16, UniProt Q82122); test: Inhibition of Rhinovirus Protease, serotype 16 (FRET assay); format: biochemical; details: enzyme start experiments, read-out: kobs/I
T1 construct: Recombinant Rhinovirus 3C proteases from serotypes 14, 16, 2 or 89 were prepared; made in house
T1 sequence (Q82122 1511-1693): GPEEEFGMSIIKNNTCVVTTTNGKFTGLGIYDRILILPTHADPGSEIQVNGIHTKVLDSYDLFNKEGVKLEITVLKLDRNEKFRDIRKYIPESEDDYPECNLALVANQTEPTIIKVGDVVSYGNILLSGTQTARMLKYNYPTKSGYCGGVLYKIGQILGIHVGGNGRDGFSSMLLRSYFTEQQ
Description: (§1) Stock solutions (50 mM, in DMSO) of various compounds were prepared; dilutions were in the same solvent. Recombinant Rhinovirus 3C proteases from serotypes 14, 16, 2 or 89 were prepared by the following standard chromatographic procedures: (1) ion exchange using Q Sepharose Fast Flow from Pharmacia; (2) affinity chromatography using Affi-Gel Blue from Biorad; and (3) sizing using Sephadex G-100 from Pharmacia. Assays contained 2% DMSO, 50 mM tris pH 7.6, 1 mM EDTA, a compound at the indicated concentrations, approximately 1 μM substrate, and 50-100 nM protease. For Ki determinations, the compound and the enzyme were preincubated for 10 minutes at 30° C. prior to addition of the substrate (substrate start). The kobs/I values were obtained from reactions initiated by addition of enzyme rather than substrate. RVP activity is measured in the fluorescence resonance energy transfer assay. The substrate was (N-terminal) DABCYL-(Gly-Arg-Ala-Val-Phe-Gln-Gly-Pro-Val-Gly)-EDANS. In the uncleaved peptide, the EDANS fluorescence was quenched by the proximal DABCYL moiety. When the peptide was cleaved, the quenching was relieved, and activity was measured as an increase in fluorescence signal.
(§2) In the above table, all data is for RVP serotype-14 unless otherwise noted in parentheses. All strains of human rhinovirus (HRV) were purchased from American Type Culture Collection (ATCC), except for serotype 14, which was produced from the infectious cDNA clone constructed and supplied to us by Dr. Roland Rueckert at the Institute for Molecular Virology, University of Wisconsin, Madison, Wis. The column designated INHIB represents the percent inhibition, with the concentration of the compound in μM indicated in parentheses, unless Ki was assigned as designated by (Ki), at 10 minute preincubation with 50 nM RVP prior to addition of substrate was used. The data in the column designated kobs/I was measured from progress curves in enzyme start experiments.

[2] = target: T2, Rhinovirus 3C protease (RVP) serotype-14 (Human rhinovirus 14, UniProt P03303); test: Inhibition of Rhinovirus Protease, serotype 14 (FRET assay); format: biochemical; details: for kinact/KI: read-out: kobs/I
T2 construct: Recombinant Rhinovirus 3C proteases from serotypes 14, 16, 2 or 89 were prepared; made in house
T2 sequence (P03303 1538-1719): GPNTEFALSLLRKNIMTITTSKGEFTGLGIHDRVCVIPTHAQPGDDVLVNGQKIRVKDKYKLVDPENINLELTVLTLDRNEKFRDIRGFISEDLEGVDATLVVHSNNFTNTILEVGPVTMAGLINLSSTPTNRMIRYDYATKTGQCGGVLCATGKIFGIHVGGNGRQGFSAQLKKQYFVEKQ
How it was run: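 Recombinant HRV 3C protease (50–100 nM) in 50 mM tris pH 7.6, 1 mM EDTA, 2% DMSO, with ~1 μM DABCYL-GRAVFQGPVG-EDANS FRET substrate; cleavage read as fluorescence increase. Ki: compound and enzyme preincubated 10 min at 30° C before substrate start; kobs/I from enzyme-start progress curves. Values are percent inhibition at stated μM, or Ki.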

[3] = target: T3, Rhinovirus 3C protease (RVP) serotype 2 (Human rhinovirus 2, UniProt P04936); test: Inhibition of Rhinovirus Protease, serotype 2 (FRET assay); format: biochemical; details: enzyme start experiments, read-out: kobs/I
T3 construct: Recombinant Rhinovirus 3C proteases from serotypes 14, 16, 2 or 89 were prepared; made in house
T3 sequence (P04936 1508-1690): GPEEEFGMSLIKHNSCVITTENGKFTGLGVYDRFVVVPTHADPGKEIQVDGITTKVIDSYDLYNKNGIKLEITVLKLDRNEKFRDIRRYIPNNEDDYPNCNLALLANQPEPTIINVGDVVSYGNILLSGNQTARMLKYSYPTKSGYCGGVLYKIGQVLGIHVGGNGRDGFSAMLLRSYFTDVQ
Description: as §1, §2

Question: With `CCOC(=O)/C=C/[C@H](CCC(N)=O)NC(=O)[C@@H]1CCCN1C(=O)[C@H](CC(C)C)NC(=O)SCC` [Compound 24, Ethyl-3-(Ethythiocarbonyl-L-Leu-L-Pro-L-Gln)-E-Propenoate] as the compound, how does the CC50 at 48 h (in vitro) read?
Answer: > 100 µM

Question: What about the TI (HRV-14) of the same compound?
Answer: > 10

Question: And the EC50 (HRV-14)?
Answer: 10 µM

Question: What about the kinact/KI [1] of the same compound?
Answer: 9300 M⁻¹ s⁻¹

Question: What about the Ki ([2]; RVP serotype-14, 10 minute preincubation with 50 nM RVP prior to addition of substrate, read-out: INHIB (Ki)) of the same compound?
Answer: 8 µM

Question: What about the kinact/KI [2] of the same compound?
Answer: 22000 M⁻¹ s⁻¹

Question: What about the kinact/KI [3] of the same compound?
Answer: 7100 M⁻¹ s⁻¹

Question: Which CC50 at 48 h (in vitro) does the source give for `CCOC(=O)/C=C/[C@H](CCC(N)=O)NC(=O)[C@@H]1CCCCN1C(=O)[C@H](CC(C)C)NC(=O)OCc1ccccc1` [Compound 25, Ethyl-3-[CBZ-L-Leu-L-Pip-L-Gln]-E-Propenoate] here?
Answer: > 320 µM

Question: What about the TI (HRV-14) of the same compound?
Answer: > 23

Question: What about the EC50 (HRV-14) of the same compound?
Answer: 14 µM

Question: What about the kinact/KI [1] of the same compound?
Answer: 770 M⁻¹ s⁻¹

Question: What about the kinact/KI [2] of the same compound?
Answer: 1470 M⁻¹ s⁻¹

Question: What about the kinact/KI [3] of the same compound?
Answer: 1280 M⁻¹ s⁻¹

Question: For `CCOC(=O)/C=C/[C@H](CCC(N)=O)NC(=O)[C@H](Cc1ccccc1)N(C)C(=O)[C@@H](NC(=O)SCC)C(C)C` [Compound 34, Ethyl-3-(Ethylthiocarbonyl-L-Val-L-N-Me-Phe-L-Gln)-E-Propenoate], which CC50 at 48 h (in vitro) is on record?
Answer: > 100 µM

Question: And the TI (HRV-14)?
Answer: > 312

Question: And the EC50 (HRV-14)?
Answer: 0.32 µM

Question: And the kinact/KI [1]?
Answer: 2060 M⁻¹ s⁻¹

Question: And the kinact/KI [2]?
Answer: 13400 M⁻¹ s⁻¹

Question: What about the kinact/KI [3] of the same compound?
Answer: 940 M⁻¹ s⁻¹

Question: Which results are given for `CCOC(=O)/C=C/[C@H](CCC(N)=O)NC(=O)[C@H](Cc1ccccc1)N(C)C(=O)[C@@H](NC(=O)SC1CCCC1)C(C)C` [Compound 35, Ethyl-3-(Cyclopentylthiocarbonyl-L-Val-L-N-Me-PHe-L-Gln-)-E-Propenoate]?
Answer: CC50 at 48 h (in vitro): > 100 µM; TI (HRV-14): > 526; EC50 (HRV-14): 0.19 µM; kinact/KI [1]: 3480 M⁻¹ s⁻¹; kinact/KI [2]: 22500 M⁻¹ s⁻¹; kinact/KI [3]: 1600 M⁻¹ s⁻¹

Question: With `CCSC(=O)N[C@@H](CC(C)C)C(=O)N(C)[C@@H](Cc1ccccc1)C(=O)N[C@H](/C=C/C(=O)N(C)OC)CCC(N)=O` [Compound 36, N-Methoxy-N-Methyl-3-(Ethylthiocarbonyl-L-Leu-L-N-Me-Phe-L-Gln)-E-Propenamide] as the compound, how does the CC50 at 48 h (in vitro) read?
Answer: > 100 µM

Question: What about the TI (HRV-14) of the same compound?
Answer: > 9

Question: And the EC50 (HRV-14)?
Answer: 11.2 µM

Question: And the kinact/KI [1]?
Answer: 750 M⁻¹ s⁻¹

Question: And the kinact/KI [2]?
Answer: 2000 M⁻¹ s⁻¹

Question: What about the kinact/KI [3] of the same compound?
Answer: 400 M⁻¹ s⁻¹

Question: For `CCOC(=O)/C=C/[C@H](CCC(N)=O)NC(=O)[C@@H]1CCc2ncc(NC(=O)OCc3ccccc3)c(=O)n21` [Compound 37, Ethyl-3-[(S)-3-(CBZ-Amino)4-Oxo-4,6,7,8-Tetrahydropyrrolo [1,2-α]Pyrimidine-6-L-Gln]-E-Propenoate], which CC50 at 48 h (in vitro) is on record?
Answer: > 100 µM

Question: What about the TI (HRV-14) of the same compound?
Answer: > 11

Question: What about the EC50 (HRV-14) of the same compound?
Answer: 8.9 µM

Question: And the kinact/KI [1]?
Answer: 4000 M⁻¹ s⁻¹

Question: What about the kinact/KI [2] of the same compound?
Answer: 12400 M⁻¹ s⁻¹

Question: What about the kinact/KI [3] of the same compound?
Answer: 2500 M⁻¹ s⁻¹
